The results in this text go back to US4331670A (priority 1979, dated 1982).

A value given as a limit tells only on which side of the number the result lay.

For one test, the system named is Botrytis cinerea. In words: Test 9: protective value on cucumber inoculated with Botrytis cinerea. Type of test: in vivo, Botrytis cinerea (cucumber plant, Suyo). The conditions noted are these: 72 h; for pest or weed control at 250 ppm: 10 ml sprayed, lesion length three days after inoculation. Here is the method: In each unglazed pot having a diameter of 9 cm, cucumber plant (Suyo) was cultured. At one leaf stage, 10 ml. of each solution of each active ingredient having a concentration of 250 ppm was sprayed by a spray gun. After maintaining the pot in a green-house at 24° to 25° C. for one day, a disc (punched agar disc) obtained by culturing Botrytis cinerea on a potato-glucose-agar medium (PDA medium) was put on the leaf of cucumber to inoculate them. Three days after the inoculation, lengths of lesions were measured and each protective value was calculated as Test 2.
In accordance with the test, except the concentration of the active ingredient was decreased, the comparative tests of Compound No. 7 and Reference compound were carried out.

The next test relates to Rhizoctonia solani. The test can be described thus: whole plant or invertebrate. Type of test: in vivo, Rhizoctonia solani (rice plant, Chukyo Asahi). The conditions noted are these: in Oryza sativa, 120 h, read-out: Preventive value.
The next test has as its system Phytophthora infestans. In kind it is cell-based. The conditions noted are these: PDA medium; fungus A: Phytophthora infestans.
Test [1] has as its system Collectotrichum lagenarium. In words: Test 3: protective value on cucumber inoculated with Collectotrichum lagenarium. Type of test: in vivo, Collectotrichum lagenarium (cucumber plant, Suyo). The conditions noted are these: 500 ppm, 10 ml sprayed; lesions six days after inoculation. Here is the method:
In each unglazed pot having a diameter of 9 cm, cucumber plant (Suyo) was cultured. At one leaf stage, 10 ml. of each solution of each active ingredient having a concentration of 500 ppm was sprayed by a spray gun. After maintaining the pot in a green-house at 24° to 25° C. for one day, each spore suspension of Collectotrichum lagenarium was sprayed. Six days after the inoculation, number of lesions on the first leaf of seedling was observed. The protective value was calculated as Test 1.

The subject of a further test is Sphaerotheca fuliginea. The test can be described thus: whole plant or invertebrate. In kind it is in vivo, Sphaerotheca fuliginea (cucumber plant, Suyo). The conditions noted are these: Podosphaera fuliginea, in Cucumis sativus, 240 h, read-out: Protective value.
A further test relates to Alternaria solani. The test can be described thus: Test 5: minimum growth inhibition concentration on PDA medium. Type of test: cell-based. The conditions noted are these: fungus C: Alternaria solani. Here is the method: (§1) A mixture of 9 ml. of a potato-glucose-agar medium (PDA medium) and 1 ml. of each active ingredient was poured into each Petri-dish to be solidified. […] The following fungi were used.

The test system of the next test is Venturia inaequalie. The test is described as above. In kind it is cell-based. The conditions noted are these: fungus D: Venturia inaequalie. The procedure:
as §1

The test system of another test is Diaporthe citri. Described as above. The conditions noted are these: fungus B: Diaporthe citri. Type of test: cell-based. The procedure:
as §1

A further test deals with Plasmopara viticola. In words: whole plant or invertebrate. Type of test: in vivo, Plasmopara viticola (cucumber plant, Suyo). The conditions noted are these: in Cucumis sativus, 144 h, read-out: Protective value.
For another test, the system named is Plutella xylostella. In words: Test 11: mortality of larvae of Plutella xylostella on treated cabbage leaf. In kind it is in vivo. The conditions noted are these: foliar, 192 h, leaf dipped, emulsifiable concentrate Composition No. 3, eight days, read-out: Percent mortality. An excerpt:
Each emulsifiable concentrate of each active ingredient as Composition No. 3 was dispersed in water at a concentration of 800 ppm. Each leaf of cabbage was dipped into each emulsion for about 10 seconds and taken up and dried in air.
A wet filter paper was put in each Petri dish (diameter of 9 cm), and each treated leaf was put on the filter paper. Larvae of Plutella xylostella at 2nd to 3rd instar were charged and the dish was covered with a cap and kept in a constant temperature chamber with lighting at 28° C. Eight days after the charge, mortality was measured and each percent mortality was calculated.

In the next test the test system is Pyricularia orzae. In words: whole plant or invertebrate. In kind it is in vivo, Pyricularia orzae (rice plant, Chukyo Asahi). The conditions noted are these: in Oryza sativa, 120 h, read-out: Protective value.
The subject of a further test is Callosobruchus chinensis. In words: Test 7: mortality of adults of Callosobruchus chinensis on film in Petri-dish. The conditions noted are these: 400 μg per Petri-dish of 9 cm, 25° C., 24 hours, read-out: Percent mortality. Type of test: in vivo. Here is the method:
Each active ingredient was dissolved in acetone to prepare each solution having the specific concentration. 1 Ml. of the solution (400 μg. of each active ingredient) was uniformly adhered on the inner bottom surface of Petri-dish having a diameter of 9 cm to form a film. In the dish, 15 of adults of Callosobruchus chinensis were charged and the dish was covered with a cap and kept in a constant temperature chamber at 25° C. for 24 hours. Each percent mortality was calculated as that of Test 6.

Another test deals with Tetranychus telarius (L). In words: Test 6: mortality of larvae and adults of Tetranychus telarius on kidney bean leaf. The conditions noted are these: foliar, 72 h, leaf dipped, wettable powder of Composition No. 5, three days after treatment, read-out: Percent mortality. In kind it is in vivo. The procedure:
Young seedling of kidney bean treated to cut off leaves except one primordial leaf was transplanted in a cup and about 30 of larvae and adults of Tetranychus telarius (L) were inoculated on the primordial leaf. This was dipped for 10 seconds in each solution obtained by diluting each wettable powder of Composition No. 5 containing each active ingredient with water at the concentration of 800 ppm and was dried in air and was kept in a constant temperature chamber with lighting at 28° C. Three days after the treatment, mortality was measured and each percent mortality was calculated as follows. [formula]

As a reminder, the mortality is the percentage killed.

As for `O=[N+]([O-])c1cc(C(F)(F)F)c(Cl)c([N+](=O)[O-])c1Nc1ncc(C(F)(F)F)cc1Cl` [Compound No. 7, N-(3-chloro-5-trifluoromethyl-2-pyridyl)-2,6-dinitro-3-chloro-4-trifluoromethylaniline], the pest or weed control at 62.5 ppm in the test on Botrytis cinerea (62.5 ppm) was found to be 100%. In the test with Botrytis cinerea, this molecule gave a pest or weed control at 250 ppm of 100%. Also, the pest or weed control at 100 ppm with Rhizoctonia solani and in the test with Pyricularia orzae was 100% in each case. Moreover, the “minimum growth inhibition concentration” value was 100 in the test on Phytophthora infestans, below 1 in the test with Alternaria solani, below 1 in the test with Venturia inaequalie and below 1 in the test on Diaporthe citri. Also, in test [1], the Protective value was 100%. Moreover, the pest or weed control at 500 ppm in the test on Sphaerotheca fuliginea and with Plasmopara viticola was 100% each time. Also, the mortality at 800 ppm in the test on Plutella xylostella was 100%. In the test on Pyricularia orzae, the pest or weed control at 12.5 ppm amounted to 98%. For the same molecule, the pest or weed control at 25 ppm in the test on Pyricularia orzae stood at 100%.

`O=[N+]([O-])c1cc([N+](=O)[O-])c(Nc2ncc(Cl)cc2Br)c(C(F)(F)F)c1` [Compound No. 62]: the pest or weed control at 100 ppm with Rhizoctonia solani and in the test with Sphaerotheca fuliginea (100 ppm) was 100% throughout. For the same molecule, in the test on Callosobruchus chinensis, the mortality at 400 µg/dish was 100%. For the same molecule, the mortality at 800 ppm with Plutella xylostella was determined as 100%.

As for `O=[N+]([O-])c1cc(C(F)(F)F)cc([N+](=O)[O-])c1Nc1ncc(Cl)cc1Cl` [compound 3, N-(3,5-dichloro-2-pyridyl)-2,6-dinitro-4-trifluoromethylaniline], the pest or weed control at 100 ppm with Rhizoctonia solani and with Pyricularia orzae was 100% throughout. In addition, the “minimum growth inhibition concentration” value in the test on Phytophthora infestans is listed as 100; in the test with Alternaria solani, 10; in the test with Venturia inaequalie it was below 1; with Diaporthe citri it was 100. For the same molecule, the Protective value in test [1] turned out to be 100%. Besides, in the test on Sphaerotheca fuliginea, the pest or weed control at 500 ppm amounted to 100%. In addition, in the test with Callosobruchus chinensis, the mortality at 400 µg/dish worked out at 100%. Also, the mortality at 800 ppm in the test on Tetranychus telarius (L) was 100%.

For `O=[N+]([O-])c1cc(C(F)(F)F)c(Cl)c([N+](=O)[O-])c1Nc1ncc(Cl)cc1Cl` [compound 4, N-(3,5-dichloro-2-pyridyl)-2,6-dinitro-3-chloro-4-trifluoromethylaniline], the pest or weed control at 100 ppm in the test with Rhizoctonia solani turned out to be 93%; in the test on Pyricularia orzae, 100%. For the same molecule, the “minimum growth inhibition concentration” value with Phytophthora infestans is given as above 100; in the test with Alternaria solani it was 100; in the test on Venturia inaequalie, below 1; with Diaporthe citri, 100. The molecule further yielded a Protective value in [1] of 100%. In addition, the pest or weed control at 500 ppm in the test with Plasmopara viticola worked out at 100%.

Consider `Cc1nc(Nc2c([N+](=O)[O-])cc(C(F)(F)F)c(Cl)c2[N+](=O)[O-])c(Cl)cc1Cl` [compound 8, N-(3,5-dichloro-6-methyl-2-pyridyl)2,6-dinitro-3-chloro-4-trifluoromethylaniline], for which the pest or weed control at 100 ppm in the test on Rhizoctonia solani is 90%; in the test with Pyricularia orzae it was 100%. In test [1], this molecule returned a Protective value of 100%.

Turning to `Cc1c(Cl)cnc(Nc2c([N+](=O)[O-])cc(C(F)(F)F)c(Cl)c2[N+](=O)[O-])c1Cl` [compound 12], the Protective value in [1] was found to be 75%. The pest or weed control at 100 ppm in the test on Pyricularia orzae is 100%.

Molecule `O=[N+]([O-])c1cc(C(F)(F)F)c(Cl)c([N+](=O)[O-])c1Nc1ccc(Cl)nc1Cl` [compound 14] returned a pest or weed control at 250 ppm with Botrytis cinerea of 95%. Besides, the pest or weed control at 100 ppm in the test with Rhizoctonia solani and in the test on Pyricularia orzae was 100% in each case. Further, in test [1], the Protective value was 100%. The pest or weed control at 500 ppm in the test with Sphaerotheca fuliginea was determined as 95%.

As to `O=[N+]([O-])c1cc(C(F)(F)F)c(Cl)c([N+](=O)[O-])c1Nc1ncc(Br)cc1Cl` [compound 20], the pest or weed control at 500 ppm with Plasmopara viticola is 100%. Further, the pest or weed control at 100 ppm in the test with Pyricularia orzae was 100%.

As for `O=[N+]([O-])c1cc(C(F)(F)F)cc([N+](=O)[O-])c1Nc1nc(Cl)c(Br)cc1C(F)(F)F` [compound 26], in the test on Botrytis cinerea, the pest or weed control at 250 ppm turned out to be 85%. In addition, the pest or weed control at 100 ppm with Rhizoctonia solani and in the test with Pyricularia orzae was 100% throughout. In addition, the Protective value in [1] stood at 90%. Besides, the pest or weed control at 500 ppm was 100% with Sphaerotheca fuliginea and 93% in the test with Plasmopara viticola. Also, the mortality at 800 ppm with Tetranychus telarius (L) turned out to be 100%.

In turn, `O=[N+]([O-])c1cc(C(F)(F)F)c(Cl)c([N+](=O)[O-])c1Nc1nc(Cl)c(C(F)(F)F)cc1Br` [compound 33] gave a pest or weed control at 250 ppm in the test on Botrytis cinerea of 100%. For the same molecule, the pest or weed control at 100 ppm in the test on Rhizoctonia solani and with Pyricularia orzae was 100% in each case. For the same molecule, the pest or weed control at 500 ppm in the test with Sphaerotheca fuliginea was 100%; in the test with Plasmopara viticola it was 85%.

Molecule `O=[N+]([O-])c1cc(C(F)(F)F)cc([N+](=O)[O-])c1Nc1nc(Cl)c(C(F)(F)F)cc1Cl` [compound 34] showed a pest or weed control at 250 ppm with Botrytis cinerea of 100%. In addition, the pest or weed control at 100 ppm in the test on Rhizoctonia solani and in the test on Pyricularia orzae was 100% throughout. In addition, the pest or weed control at 500 ppm in the test on Sphaerotheca fuliginea amounted to 100%; in the test on Plasmopara viticola, 83%. Besides, the mortality at 800 ppm with Tetranychus telarius (L) came to 100%.

Turning to `O=[N+]([O-])c1cc([N+](=O)[O-])c(Nc2ncc(Cl)cc2Cl)c(C(F)(F)F)c1` [compound 60, N-(3,5-dichloro-2-pyridyl)-2,4-dinitro-6-trifluoromethylaniline], in the test on Rhizoctonia solani, the pest or weed control at 100 ppm was found to be 100%. For the same molecule, the mortality at 400 µg/dish with Callosobruchus chinensis is 100%. For the same molecule, in the test on Plutella xylostella, the mortality at 800 ppm worked out at 100%. The pest or weed control at 50 ppm in the test with Pyricularia orzae stood at 100%.

With `O=[N+]([O-])c1cc([N+](=O)[O-])c(Nc2ncc(Br)cc2Br)c(C(F)(F)F)c1` [compound 61], the pest or weed control at 100 ppm with Rhizoctonia solani came out at 100%. The mortality at 400 µg/dish with Callosobruchus chinensis turned out to be 100%. Besides, the mortality at 800 ppm with Plutella xylostella came out at 100%. In addition, the pest or weed control at 50 ppm in the test on Pyricularia orzae turned out to be 100%.

On to `O=[N+]([O-])c1cc([N+](=O)[O-])c(Nc2ncc(Br)cc2Cl)c(C(F)(F)F)c1` [compound 63], for which, in the test on Rhizoctonia solani, the pest or weed control at 100 ppm turned out to be 100%. The mortality at 400 µg/dish in the test on Callosobruchus chinensis stood at 100%. The mortality at 800 ppm with Plutella xylostella was found to be 100%.

`O=[N+]([O-])c1cc([N+](=O)[O-])c(Nc2ncc(C(F)(F)F)cc2Cl)c(C(F)(F)F)c1` [compound 65]: the pest or weed control at 100 ppm with Rhizoctonia solani came to 100%. In the test on Callosobruchus chinensis, the mortality at 400 µg/dish was determined as 100%. The mortality at 800 ppm in the test with Plutella xylostella was 100%. Moreover, the pest or weed control at 50 ppm with Pyricularia orzae was determined as 100%.

For `CC(=O)N(c1ncc(C(F)(F)F)cc1Cl)c1c([N+](=O)[O-])cc(C(F)(F)F)c(Cl)c1[N+](=O)[O-]` [compound 88, N-acetyl-N-(3-chloro-5-trifluoromethyl-2-pyridyl)-2,6-dinitro-3-chloro-4-trifluoromethylaniline], the pest or weed control at 100 ppm in the test on Rhizoctonia solani amounted to 100%. The pest or weed control at 500 ppm in the test on Plasmopara viticola came out at 100%.
